Target: T1, CtGH5-CBM6 (CtGH5-CtCBM6, derivative of arabinoxylanase CtXyl5A) (Acetivibrio thermocellus, UniProt A3DHG6, E279S)
T1 construct: gene Cthe_2193; no signal peptide, CBM13, Fn3, CBM62 or dockerin; C-terminal His6; E. coli BL21(DE3)
Assay: X-ray crystal structure, co-crystal, […] Å
Format: binding
Conditions: nucleophile-inactive mutant; 10 mM WAX-derived oligosaccharide; subsites -1 to -4 and -2*; PDB code printed as 2LA2 (apparent misprint for 5LA2)

T1 sequence (A3DHG6 entry or part of it E279S): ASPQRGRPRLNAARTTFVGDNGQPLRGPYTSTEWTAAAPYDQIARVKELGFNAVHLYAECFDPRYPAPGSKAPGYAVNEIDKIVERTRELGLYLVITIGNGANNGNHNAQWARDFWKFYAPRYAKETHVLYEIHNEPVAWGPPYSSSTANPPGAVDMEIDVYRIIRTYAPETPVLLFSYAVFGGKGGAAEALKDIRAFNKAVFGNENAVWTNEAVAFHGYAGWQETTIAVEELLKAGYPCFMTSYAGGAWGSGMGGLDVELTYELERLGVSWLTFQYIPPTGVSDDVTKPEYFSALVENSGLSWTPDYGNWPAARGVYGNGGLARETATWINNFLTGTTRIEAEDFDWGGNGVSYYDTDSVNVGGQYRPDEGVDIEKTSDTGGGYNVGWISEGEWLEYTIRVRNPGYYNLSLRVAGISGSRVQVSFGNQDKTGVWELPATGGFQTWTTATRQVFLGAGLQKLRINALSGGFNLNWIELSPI

**Q.** How did the “X-ray crystal structure, co-crystal, 1.65 Å” value turn out when `OC[C@@H]1O[C@@H](O[C@H]2[C@H](O[C@@H]3OC[C@@H](O[C@@H]4OC[C@@H](O[C@@H]5OC[C@@H](O)[C@H](O)[C@H]5O)[C@H](O)[C@H]4O)[C@H](O)[C@H]3O)COC(O)[C@@H]2O)[C@H](O)[C@H]1O` (stereo partly drawn) [Xylp-β-1,4-Xylp-β-1,4-Xylp-[α-1,3-Araf]-β-1,4-Xylp] was run?
**A.** Its value is “co-crystallizing the nucleophile inactive mutant CtGH5E279S-CtCBM6 with a WAX-derived oligosaccharide”.

Reference: publication PMC5063996, “The Mechanism by Which Arabinoxylanases Can Recognize Highly Decorated Xylans” (The Journal of Biological Chemistry, 2016)
